Laboratory results as given in ChEMBL document CHEMBL3046219, “Inhibitive Effect of Prodigiosin on the Proliferation of Human Malignant Pancreatic Cancer Cells” (Med Chem Res, 2005).
Calls of active or inactive are those of the source. The calls are words filed in the database; no cut-off is given here.

Assays:
[1] = Cytotoxicity against Homo sapiens (human) H8898 cells assessed as reduction in cell viability at 25 umol after 12 hr by MTT assay; type: functional
[2] = (§1) Cytotoxicity against Homo sapiens (human) H8898 cells assessed as reduction in cell viability after 12 hr by MTT assay; type: functional, cell-based
Homo sapiens [3] = species on record: Homo sapiens; experiment: as §1; type: functional, cell-based
Homo sapiens [4] = species on record: Homo sapiens; experiment: Induction of oxidative stress in Homo sapiens (human) H8898 cells assessed as increase in intracellular ROS level after 12 hr using CDCFH-DA by spectrophotometry; type: functional, cell-based
[5] = Drug uptake in Homo sapiens (human) H8898 cells after 24 hr by HPLC analysis; type: ADME
Homo sapiens [6] = species on record: Homo sapiens; experiment: Induction of DNA fragmentation in Homo sapiens (human) H8898 cells at 12.5 umol after 24 hr by agarose gel electrophoresis; type: functional
Homo sapiens [7] = species on record: Homo sapiens; experiment: Induction of DNA fragmentation in Homo sapiens (human) H8898 cells at 50 umol after 24 hr by agarose gel electrophoresis; type: functional
Homo sapiens [8] = species on record: Homo sapiens; experiment: Induction of apoptosis in Homo sapiens (human) H8898 cells at 12.5 to 50 umol after 24 hr by FACS analysis; type: functional
Homo sapiens [9] = species on record: Homo sapiens; experiment: Induction of apoptosis in Homo sapiens (human) H8898 cells assessed as cytoplasm leakage into membrane bound vesicles at 12.5 umol after 12 hr by microscopy; type: functional
Homo sapiens [10] = species on record: Homo sapiens; experiment: Induction of apoptosis in Homo sapiens (human) H8898 cells assessed as cell compaction at 12.5 umol after 12 hr by microscopy; type: functional
[11] = Cell cycle arrest in Homo sapiens (human) H8898 cells assessed as retardation at G1/S phase at 12 to 50 umol after 24 hr by flow cytometry; type: functional
[12] = Cell cycle arrest in Homo sapiens (human) H8898 cells assessed as increase in G0-G1 phase cells at 12 to 50 umol after 24 hr by flow cytometry; type: functional, cell-based
[13] = Cell cycle arrest in Homo sapiens (human) H8898 cells assessed as reduction in S phase cells at 12 to 50 umol after 24 hr by flow cytometry; type: functional, cell-based
Homo sapiens [14] = species on record: Homo sapiens; experiment: Inhibition of clone formation in Homo sapiens (human) H8898 cells after 5 days using trypan blue staining by inverted microscopy; type: functional
Homo sapiens [15] = species on record: Homo sapiens; experiment: Antiproliferative activity against Homo sapiens (human) H8898 cells after 5 days using trypan blue staining by hemocytometry; type: functional
Homo sapiens [16] = species on record: Homo sapiens; experiment: Cytotoxicity against Homo sapiens (human) H8898 cells assessed as reduction in cell viability at 50 umol after 2 days by MTT assay; type: functional, cell-based
Homo sapiens [17] = species on record: Homo sapiens; experiment: Cytotoxicity against Homo sapiens (human) H8898 cells assessed as reduction in cell viability at 50 umol at 12 hr by MTT assay; type: functional, cell-based
Homo sapiens [18] = species on record: Homo sapiens; experiment: Cytotoxicity against Homo sapiens (human) H8898 cells assessed as reduction in cell viability at 50 umol up to 5 days by MTT assay; type: functional, cell-based
[19] = Cytotoxicity against Homo sapiens (human) H8898 cells assessed as reduction in cell viability at 50 umol after 8 to 12 hr by MTT assay; type: functional
Homo sapiens [20] = species on record: Homo sapiens; experiment: Cytotoxicity against Homo sapiens (human) H8898 cells assessed as reduction in cell viability at 50 umol by MTT assay; type: functional, cell-based; conditions: TDE = time-dependent effect
[21] = Cytotoxicity against Homo sapiens (human) H8898 cells assessed as reduction in cell viability at 50 umol after 12 hr by MTT assay; type: functional

CCCCCC1=C/C(=C/c2[nH]c(-c3ccc[nH]3)cc2OC)N=C1C [PRODIGIOSIN]
Activity [1]: 5.6%
IC50 [2]: 75 µM
Activity (Homo sapiens [3]): Dose-dependent effect
Activity (Homo sapiens [4]): Dose-dependent effect
Drug uptake [5]: Dose-dependent effect
Activity (Homo sapiens [6]): Active
Activity (Homo sapiens [7]): Active
Activity (Homo sapiens [8]): Active
Activity (Homo sapiens [9]): Active
Activity (Homo sapiens [10]): Active
Activity [11]: Active
Activity [12]: Active
Activity [13]: Active
Activity (Homo sapiens [14]): Active
Activity (Homo sapiens [15]): Active
Activity (Homo sapiens [16]): Active
Activity (Homo sapiens [17]): Active
Activity (Homo sapiens [18]): Active
Activity [19]: 28%
Activity (Homo sapiens [20]): tde
Activity [21]: 34%
